Measured values as given in article PMC8954769, “Development of an LC-MS/MS Method for ARV-110, a PROTAC Molecule, and Applications to Pharmacokinetic Studies” (Molecules, 2022).

Experiments:
[1] = In vitro plasma stability, mouse; assay type: in vitro ADME; conditions: 37 °C, incubation 4 h, read-out: T1/2 in plasma
Experimental: (§1) The stabilities of ARV-110 in the hepatic microsomal fraction and plasma were investigated for three species (human, rat, and mouse). For the microsomal stability study, a reaction mixture containing hepatic microsomes (protein concentration, 0.5 mg/mL) and 1 mM NADPH in phosphate buffer (pH 7.4) was pre-incubated in a thermomixer (5 min, 37 °C, 200 rpm). To initiate the metabolic reaction, 5 μL of ARV-110 in methanol (100 μM) was added to the pre-incubated mixture to obtain a final ARV-110 concentration of 1 μM. The metabolic reactions of buspirone and verapamil were conducted simultaneously as positive controls. For plasma stability measurements, 5 μL of ARV-110 in methanol (100 μM) was added to pre-warmed blank plasma to obtain a final ARV-110 concentration of 1 μM. Procaine was used to control plasma stability. The temperature was maintained and agitation was continued throughout the reaction, and sampling was conducted at predetermined time points (0 (beginning of the reaction), 15; 30; 60; 120; […] min). For the microsomal and plasma stability measurements, the reaction was conducted for 120 and 240 min, respectively. […] The elimination rate constant (ke) was determined as the slope of the linear regression between the log of the percentage of analyte remaining and the incubation time. […]

[2] = set-up: method as in doi:10.1200/JCO.2020.38.15_suppl.3500; conditions: preliminary data from a phase I clinical trial; cited from earlier work
resistance models = system: resistance models; set-up: method as in PMID 31885879, PMID 30271980; conditions: cited from earlier work
[3] = Stability of ARV-110 QC samples in rat plasma under storage conditions; assay type: in vitro ADME
Experimental: (§2) The sample stability in rat and mouse plasma was evaluated at low and high QC concentrations. The short-term stability was evaluated at room temperature for 1 h, whereas the long-term stability was determined by assaying samples stored at −20 °C for 4 weeks. […] The freeze–thaw stability was tested by subjecting samples to three freeze–thaw cycles.

[4] = Pharmacokinetic study in rats (IV and PO); assay type: in vivo, Sprague Dawley (SD) rats; conditions: rat; for bioavailability: oral 5 mg/kg vs IV 2 mg/kg
Experimental: (§3) The validated LC-MS/MS method was applied to determine ARV-110 in pharmacokinetic studies in rats and mice. Animal studies were approved in advance by the Institutional Animal Care and Use Committee of Chungnam National University (202103A-CNU-053; Daejeon, Republic of Korea). Male Sprague Dawley (SD) rats (7 weeks old, 210–251 g) and male ICR mice (6 weeks old, 25–32 g) were purchased from Orient Bio Inc. (Seongnam, Republic of Korea). Their habitat was maintained under a 12 h light–dark cycle at a room temperature of 20–25 °C and a relative humidity of 40–60%. The animals had free access to food and water. Food fasting was started 14 or 4 h prior to drug administration to rats and mice, respectively. After drug administration, the animals were not given food or water for another 4 h.
The drug solution for the pharmacokinetic study in rats was prepared by dissolving ARV-110 in a dimethyl sulfoxide (DMSO)–PEG400–Cremophor EL–saline (5:40:5:50, v/v/v/v). The drug solution was administered to the rats via a single IV bolus into the tail vein at a dose of 2 mg/kg or PO using a gavage needle at a dose of 5 mg/kg. Blood samples (100 μL) were collected from the jugular vein using heparinized syringes at 0.083 (IV only), 0.25, 0.5, 1, 2, 4, 6, 8, 24, and 48 h after ARV-110 administration. Plasma was collected from the blood by centrifugation, and a 20 μL aliquot of plasma was stored at −20 °C until analysis.
(§4) For plasma sample preparation, 20 μL of rat or mouse plasma was added to 20 μL of IS solution (10 μg/mL) and 110 μL of acetonitrile. After vigorous mixing for 10 min, the mixture was centrifuged at 13,500 rpm for 10 min. An aliquot of the supernatant (100 μL) was collected for analysis. Cmax and Tmax were determined directly from the plasma concentration–time profile of each animal. To determine other pharmacokinetic parameters, the experimental data were analyzed using Phoenix® 8.2 software (Certara L.P., Princeton, NJ, USA), as described previously. All data are presented as mean ± SD.

[5] = In vitro plasma stability, rat; assay type: in vitro ADME; conditions: 37 °C, incubation 4 h, read-out: T1/2 in plasma
Experimental: as §1

[6] = Hepatic microsomal metabolic stability, human; assay type: in vitro ADME; conditions: 1 mM NADPH, 37 °C
Experimental: as §1

[7] = Hepatic microsomal metabolic stability, mouse; assay type: in vitro ADME; conditions: 1 mM NADPH, 37 °C
Experimental: as §1

[8] = Pharmacokinetic study in mice (IV and PO); assay type: in vivo, ICR mice; conditions: mouse; for bioavailability: oral 5 mg/kg vs IV 2 mg/kg, after dose normalization
Experimental: as §3
The drug solution for the pharmacokinetic study in mice was prepared by dissolving ARV-110 in DMSO–PEG400–Cremophor EL–saline (5:30:2.5:62.5, v/v/v/v). The drug solution was administered via an IV bolus into the tail vein at a dose of 2 mg/kg or PO at a dose of 5 mg/kg. Blood samples (50 μL) were alternatively collected from the right retro-orbital plexus at 0.05 (IV only), 0.12, 0.5, 1, 2, 4, 8, 24, and 48 h after ARV-110 administration. Plasma was obtained by centrifuging the blood at 17,600× g for 5 min, and a 20 μL aliquot of plasma was stored at −20 °C until analysis.
as §4

[9] = Hepatic microsomal metabolic stability, rat; assay type: in vitro ADME; conditions: 1 mM NADPH, 37 °C
Experimental: as §1

[10] = Stability of ARV-110 QC samples in mouse plasma under storage conditions; assay type: in vitro ADME
Experimental: as §2

AR = system: AR; set-up: method as in PMID 31885879, PMID 30271980; conditions: various prostate cancer cell lines; cited from earlier work
[11] = In vitro plasma stability, human; assay type: in vitro ADME; conditions: 37 °C, incubation 4 h, read-out: T1/2 in plasma
Experimental: as §1

[12] = set-up: method as in PMID 34355087; conditions: cited from earlier work
[13] = 15 min at room temperature (25 °C), nominal 5 ng/mL
[14] = 15 min at room temperature (25 °C), nominal 2500 ng/mL
[15] = 1 h at room temperature (25 °C), nominal 5 ng/mL
[16] = 1 h at room temperature (25 °C), nominal 2500 ng/mL
[17] = 4 h on ice cold, nominal 5 ng/mL
[18] = 4 h on ice cold, nominal 2500 ng/mL
[19] = Freeze–thaw (3 cycles), nominal 5 ng/mL
[20] = Freeze–thaw (3 cycles), nominal 2500 ng/mL
[21] = Long term (4 weeks at −20 °C), nominal 5 ng/mL
[22] = Long term (4 weeks at −20 °C), nominal 2500 ng/mL
[23] = Processed sample (autosampler, 10 °C, 24 h), nominal 5 ng/mL
[24] = Processed sample (autosampler, 10 °C, 24 h), nominal 2500 ng/mL
[25] = male, Sprague Dawley, in vivo, intravenous, 2 mg/kg
[26] = male, Sprague Dawley, in vivo, oral, 5 mg/kg
[27] = male, ICR, in vivo, intravenous, 2 mg/kg
[28] = male, ICR, in vivo, oral, 5 mg/kg

In the case of `N#Cc1ccc(O[C@H]2CC[C@H](NC(=O)c3ccc(N4CCC(CN5CCN(c6cc7c(cc6F)C(=O)N(C6CCC(=O)NC6=O)C7=O)CC5)CC4)nn3)CC2)cc1Cl` (stereo partly drawn) [ARV-110, bavdegalutamide], the half-life at 1 μM [1] is listed as 1.55 h, the “safety and tolerability in patients” value [2] is listed as “satisfactory safety and tolerability” and the “reduction of tumor growth” value (resistance models) is listed as 70–100%. The “Stability in Rat Plasma (%)” value [3, 13] was 100.6 ± 7.8%, the “Stability in Rat Plasma (%)” value [3, 14] was 96.99 ± 2.27% and the “Stability in Rat Plasma (%)” value [3, 15] was 68.73 ± 7.74%. The “Stability in Rat Plasma (%)” value [3, 16] was 68.82 ± 1.08%, the “Stability in Rat Plasma (%)” value [3, 17] was 92.20 ± 1.38% and the “Stability in Rat Plasma (%)” value [3, 18] was 92.21 ± 2.24%. The “Stability in Rat Plasma (%)” value [3, 19] was 103.2 ± 3.9%, the “Stability in Rat Plasma (%)” value [3, 20] was 101.8 ± 3.4% and the “Stability in Rat Plasma (%)” value [3, 21] was 100.6 ± 5.6%. The “Stability in Rat Plasma (%)” value [3, 22] was 100.5 ± 5.0%, the “Stability in Rat Plasma (%)” value [3, 23] was 99.60 ± 2.91% and the “Stability in Rat Plasma (%)” value [3, 24] was 102.6 ± 4.1%. For the same compound, the “ARV-110 remained in QC samples” value ([3]; rat plasma, short-term storage, 1 h at 25 °C) was “approximately 69%”, the AUC(0-inf) [4, 25] was 4860 ± 381 ng·h/mL and the AUC(0-t) [4, 25] was 4530 ± 288 ng·h/mL. It also gave a Cmax [4, 25] of 2520 ± 292 ng/mL, an MRT [4, 25] of 10.2 ± 0.48 h and a Tmax [4, 25] of 0.083 h. It also gave a clearance [4, 25] of 6.89 mL/min/kg, a half-life [4, 25] of 13.6 ± 1.43 h and a Vd ([4]; male, Sprague Dawley, in vivo, intravenous, 2 mg/kg, read-out: Vss) of 5.78 ± 0.32 L/kg. The AUC(0-inf) [4, 26] was 2890 ± 318 ng·h/mL, the AUC(0-t) [4, 26] was 2420 ± 222 ng·h/mL and the Cmax [4, 26] was 110 ± 9.2 ng/mL. For the same compound, the MRT [4, 26] was 16.4 ± 1.16 h, the Tmax [4, 26] was 5.5 ± 1.92 h and the half-life [4, 26] was 17.7 ± 3.21 h. It also gave a bioavailability ([4]; male, Sprague Dawley, in vivo, 5 mg/kg, read-out: Bioavailability) of 23.8%, a bioavailability [4] of 23.83 ± 2.62% and a half-life at 1 μM [5] of 0.733 h. The “drug remaining after incubation for 2 h” value ([6]; human hepatic microsomes 0.5 mg/mL, 1 μM) was 92.07%, the half-life at 1 μM ([6]; pH 7.4, human hepatic microsomes 0.5 mg/mL, read-out: elimination half-life (T1/2) in hepatic microsomes) was 16.4 h and the “drug remaining after incubation for 2 h” value ([7]; mouse hepatic microsomes 0.5 mg/mL, 1 μM) was 80.95%. For the same compound, the half-life at 1 μM ([7]; pH 7.4, mouse hepatic microsomes 0.5 mg/mL, read-out: elimination half-life (T1/2) in hepatic microsomes) was 6.92 h, the AUC(0-inf) [8, 27] was 11300 ng·h/mL and the AUC(0-t) [8, 27] was 10800 ng·h/mL. The Cmax [8, 27] was 1260 ± 99 ng/mL, the MRT [8, 27] was 13.1 ± 0.9 h and the Tmax [8, 27] was 0.05 h. It also gave a clearance [8, 27] of 3.02 mL/min/kg, a half-life [8, 27] of 11.4 ± 0.51 h and a Vd ([8]; male, ICR, in vivo, intravenous, 2 mg/kg, read-out: Vss) of 2.37 ± 0.402 L/kg. The AUC(0-inf) [8, 28] was 10700 ng·h/mL, the AUC(0-t) [8, 28] was 9870 ± 1000 ng·h/mL and the Cmax [8, 28] was 612 ± 88.4 ng/mL. The MRT [8, 28] was 12.9 ± 0.84 h, the Tmax [8, 28] was 4.8 ± 1.79 h and the half-life [8, 28] was 14.6 ± 2.48 h. The bioavailability ([8]; male, ICR, in vivo, 5 mg/kg, read-out: Bioavailability) was 37.9%, the bioavailability [8] was 37.89 ± 4.16% and the half-life at 1 μM ([9]; pH 7.4, rat hepatic microsomes 0.5 mg/mL, read-out: elimination half-life (T1/2) in hepatic microsomes) was 36.9 h. The “drug remaining after incubation for 2 h” value ([9]; rat hepatic microsomes 0.5 mg/mL, 1 μM) was 96.60%, the “Stability in Mouse Plasma (%)” value [10, 13] was 99.43 ± 2.93% and the “Stability in Mouse Plasma (%)” value [10, 14] was 95.74 ± 5.74%. The “Stability in Mouse Plasma (%)” value [10, 15] was 83.70 ± 14.24%, the “Stability in Mouse Plasma (%)” value [10, 16] was 78.91 ± 4.93% and the “Stability in Mouse Plasma (%)” value [10, 17] was 93.01 ± 5.30%. For the same compound, the “Stability in Mouse Plasma (%)” value [10, 18] was 94.09 ± 5.23%, the “Stability in Mouse Plasma (%)” value [10, 19] was 104.0 ± 6.1% and the “Stability in Mouse Plasma (%)” value [10, 20] was 103.2 ± 4.1%. The “Stability in Mouse Plasma (%)” value [10, 21] was 97.97 ± 10.23%, the “Stability in Mouse Plasma (%)” value [10, 22] was 97.59 ± 3.78% and the “Stability in Mouse Plasma (%)” value [10, 23] was 98.77 ± 3.58%. The “Stability in Mouse Plasma (%)” value [10, 24] was 98.62 ± 3.54%, the “ARV-110 remained in QC samples” value ([10]; mouse plasma, short-term storage, 1 h at 25 °C) was ~80% and the “degradation of AR” value (AR) was 95–98%. For the same compound, the half-life at 1 μM [11] was 0.4 h.
In the case of `Nc1cccc2c1C(=O)N(C1CCC(=O)NC1=O)C2=O` (stereo not drawn) [pomalidomide], the logP [12] is listed as 0.01 and the pKa [12] is listed as 1.89.
